# Measured values as given in US20200199692A1, “LACTIC BACTERIA AND THE USE THEREOF FOR THE PREVENTIVE, INHIBITORY AND/OR REDUCTIVE TREATMENT OF THE FORMATION OF BACTERIAL BIOFILMS” (PROBIOTICAL S.P.A., priority 2016, published 2020).
# Read-outs that look alike come from different tables or passages of the source.
# Tests used:
# [1] = tested on: Lactobacillus paracasei LMC-8 ID 1954 DSM 32258; experiment: Antibiotic resistance profile (E-test, ABBiodisk); format: cell-based
# [2] = tested on: Lactobacillus plantarum LMC-1 ID 1952 DSM 32252; experiment: Antibiotic resistance profile (E-test, ABBiodisk); format: cell-based
# [3] = tested on: Lactobacillus paracasei LMC-4 ID 1953 DSM 32254; experiment: Antibiotic resistance profile (E-test, ABBiodisk); format: cell-based
# [4] = tested on: Commercial Bifidobacterium; experiment: Antibiotic resistance profile (E-test, ABBiodisk); format: cell-based
# Commercial Lactobacillus = experiment: Antibiotic resistance profile (E-test, ABBiodisk); format: cell-based
# Lactobacillus plantarum = settings: Table 4 (L. plantarum); Linezolid from EFSA 2005, Quinupristin/Dalfopristin from EFSA 2008; cited from earlier work
# Lactobacillus paracasei = settings: Tables 8 and 12 (L. paracasei); Linezolid from EFSA 2005, Quinupristin/Dalfopristin from EFSA 2008; cited from earlier work
# [5] = Lacticaseibacillus paracasei, DSM32258, Etest strips in agar, strain Lactobacillus paracasei LMC-8 ID 1954 DSM 32258, read-out: MIC
# [6] = Lactiplantibacillus plantarum, DSM32252, Etest strips in agar, strain Lactobacillus plantarum LMC-1 ID 1952 DSM 32252, read-out: MIC
# [7] = Lacticaseibacillus paracasei, DSM32254, Etest strips in agar, strain Lactobacillus paracasei LMC-4 ID 1953 DSM 32254, read-out: MIC
# [8] = Etest strips in agar, Commercial Bifidobacterium reference strain, read-out: MIC
# [9] = Etest strips in agar, Commercial Lactobacillus reference strain, read-out: MIC
# [10] = Etest strips in agar, strain Lactobacillus paracasei LMC-8 ID 1954 DSM 32258
# [11] = Etest strips in agar, strain Lactobacillus plantarum LMC-1 ID 1952 DSM 32252
# [12] = Etest strips in agar, strain Lactobacillus paracasei LMC-4 ID 1953 DSM 32254
# [13] = Etest strips in agar, Commercial Bifidobacterium reference strain
# [14] = Etest strips in agar, Commercial Lactobacillus reference strain
# [15] = Lacticaseibacillus paracasei, DSM32258
# [16] = Lacticaseibacillus paracasei, DSM32254
compound,measurement,setting,value
CC1(C)S[C@@H]2[C@H](NC(=O)[C@H](N)c3ccc(O)cc3)C(=O)N2[C@H]1C(=O)O [Amoxicillin],MIC,[1]; [5],0.5 µg/mL
same,MIC,[2]; [6],0.19 µg/mL
same,MIC,[3]; [7],0.25 µg/mL
same,MIC,[4]; [8],0.064 µg/mL
same,MIC,Commercial Lactobacillus; [9],0.5 µg/mL
CC1(C)S[C@@H]2[C@H](NC(=O)[C@H](N)c3ccccc3)C(=O)N2[C@H]1C(=O)O [Ampicillin],MIC,[1]; [5],0.38 µg/mL
same,MIC,[2]; [6],0.032 µg/mL
same,MIC,[3]; [7],0.094 µg/mL
same,EFSA Limit 2012,Lactobacillus plantarum,2 µg/mL
same,EFSA Limit 2012,Lactobacillus paracasei,4 µg/mL
same,MIC,[4]; [8],0.016 µg/mL
same,MIC,Commercial Lactobacillus; [9],0.5 µg/mL
CC[C@H]1OC(=O)[C@H](C)[C@@H](O[C@H]2C[C@@](C)(OC)[C@@H](O)[C@H](C)O2)[C@H](C)[C@@H](O[C@@H]2O[C@H](C)C[C@H](N(C)C)[C@H]2O)[C@](C)(O)C[C@@H](C)CN(C)[C@H](C)[C@@H](O)[C@]1(C)O [Azithromycin],MIC,[1]; [5],0.75 µg/mL
same,MIC,[2]; [6],2 µg/mL
same,MIC,[3]; [7],0.5 µg/mL
same,MIC,[4]; [8],0.75 µg/mL
same,MIC,Commercial Lactobacillus; [9],0.38 µg/mL
CO[C@@]1(NC(=O)Cc2cccs2)C(=O)N2C(C(=O)O)=C(COC(N)=O)CS[C@@H]21 [Cefoxitin],MIC,[1]; [5],> 256 µg/mL
same,MIC,[2]; [6],64 µg/mL
same,MIC,[3]; [7],> 256 µg/mL
same,MIC,[4]; [8],1 µg/mL
same,MIC,Commercial Lactobacillus; [9],> 256 µg/mL
CO/N=C(\C(=O)N[C@@H]1C(=O)N2C(C(=O)O)=C(COC(N)=O)CS[C@H]12)c1ccco1 [Cefuroxime],MIC,[1]; [5],1 µg/mL
same,MIC,[2]; [6],0.064 µg/mL
same,MIC,[3]; [7],0.75 µg/mL
same,MIC,[4]; [8],0.25 µg/mL
same,MIC,Commercial Lactobacillus; [9],1.5 µg/mL
O=C(O)c1cn(C2CC2)c2cc(N3CCNCC3)c(F)cc2c1=O [Ciprofloxacin],MIC,[1]; [5],1 µg/mL
same,MIC,[2]; [6],> 32 µg/mL
same,MIC,[3]; [7],0.75 µg/mL
same,MIC,[4]; [8],4 µg/mL
same,MIC,Commercial Lactobacillus; [9],1 µg/mL
CC[C@H]1OC(=O)[C@H](C)[C@@H](O[C@H]2C[C@@](C)(OC)[C@@H](O)[C@H](C)O2)[C@H](C)[C@@H](O[C@@H]2O[C@H](C)C[C@H](N(C)C)[C@H]2O)[C@](C)(OC)C[C@@H](C)C(=O)[C@H](C)[C@@H](O)[C@]1(C)O [Clarithromycin],MIC,[1]; [5],0.094 µg/mL
same,MIC,[2]; [6],0.25 µg/mL
same,MIC,[3]; [7],0.047 µg/mL
same,MIC,[4]; [8],0.032 µg/mL
same,MIC,Commercial Lactobacillus; [9],0.047 µg/mL
CCC[C@@H]1C[C@@H](C(=O)N[C@@H]([C@H]2O[C@H](SC)[C@H](O)[C@@H](O)[C@H]2O)[C@H](C)Cl)N(C)C1 [Clindamycin],MIC,[1]; [5],0.094 µg/mL
same,MIC,[2]; [6],2 µg/mL
same,MIC,[3]; [7],0.064 µg/mL
same,MIC,[4]; [8],0.047 µg/mL
same,MIC,Commercial Lactobacillus; [9],0.5 µg/mL
O=C(N[C@H](CO)[C@H](O)c1ccc([N+](=O)[O-])cc1)C(Cl)Cl [Cloramphenicol],MIC,[1]; [10],2.0 µg/mL
same,MIC,[2]; [11],2 µg/mL
same,MIC,[3]; [12],1.5 µg/mL
same,EFSA Limit 2012,Lactobacillus plantarum,8 µg/mL
same,EFSA Limit 2012,Lactobacillus paracasei,4 µg/mL
same,MIC,[4]; [13],0.75 µg/mL
same,MIC,Commercial Lactobacillus; [14],3 µg/mL
CC[C@H]1OC(=O)[C@H](C)[C@@H](O[C@H]2C[C@@](C)(OC)[C@@H](O)[C@H](C)O2)[C@H](C)[C@@H](O[C@@H]2O[C@H](C)C[C@H](N(C)C)[C@H]2O)[C@](C)(O)C[C@@H](C)C(=O)[C@H](C)[C@@H](O)[C@]1(C)O [Erythromycin],MIC,[1]; [15],0.125 µg/mL
same,MIC,[2]; [6],0.75 µg/mL
same,MIC,[3]; [16],0.125 µg/mL
same,EFSA Limit 2012,Lactobacillus plantarum,1 µg/mL
same,EFSA Limit 2012,Lactobacillus paracasei,1 µg/mL
same,MIC,[4]; [8],0.094 µg/mL
same,MIC,Commercial Lactobacillus; [9],0.032 µg/mL
C[C@@H](O)[C@H]1C(=O)N2C(C(=O)O)=C(SCCN=CN)C[C@H]12 [Imipenem],MIC,[1]; [5],0.75 µg/mL
same,MIC,[2]; [6],0.047 µg/mL
same,MIC,[3]; [7],1.5 µg/mL
same,MIC,[4]; [8],0.25 µg/mL
same,MIC,Commercial Lactobacillus; [9],2 µg/mL
NC[C@H]1O[C@H](O[C@H]2[C@H](O)[C@@H](O[C@H]3O[C@H](CO)[C@@H](O)[C@H](N)[C@H]3O)[C@H](N)C[C@@H]2N)[C@H](O)[C@@H](O)[C@@H]1O [Kanamycin],MIC,[1]; [5],64 µg/mL
same,MIC,[2]; [6],64 µg/mL
same,MIC,[3]; [7],24 µg/mL
same,MIC,Commercial Lactobacillus; [9],128 µg/mL
CC(=O)NC[C@H]1CN(c2ccc(N3CCOCC3)c(F)c2)C(=O)O1 [Linezolid],MIC,[1]; [5],1.5 µg/mL
same,MIC,[2]; [6],1.5 µg/mL
same,MIC,[3]; [7],0.38 µg/mL
same,EFSA Limit 2012,Lactobacillus plantarum,4 µg/mL
same,EFSA Limit 2012,Lactobacillus paracasei,4 µg/mL
same,MIC,[4]; [8],0.38 µg/mL
same,MIC,Commercial Lactobacillus; [9],2 µg/mL
CO[C@H]1/C=C/O[C@@]2(C)Oc3c(C)c(O)c4c(O)c(c(/C=N/N5CCN(C)CC5)c(O)c4c3C2=O)NC(=O)/C(C)=C\C=C\[C@H](C)[C@H](O)[C@@H](C)[C@@H](O)[C@@H](C)[C@H](OC(C)=O)[C@@H]1C [Rifampicin],MIC,[1]; [5],0.032 µg/mL
same,MIC,[2]; [6],0.25 µg/mL
same,MIC,[3]; [7],0.016 µg/mL
same,MIC,[4]; [8],0.094 µg/mL
same,MIC,Commercial Lactobacillus; [9],0.094 µg/mL
[H]/N=C(/N)N[C@H]1[C@H](O)[C@@H](O)[C@H](O[C@@H]2O[C@@H](C)[C@](O)(C=O)[C@H]2O[C@@H]2O[C@@H](CO)[C@H](O)[C@@H](O)[C@@H]2NC)[C@@H](N/C(N)=N\[H])[C@@H]1O [Streptomycin],MIC,[1]; [5],24 µg/mL
same,MIC,[2]; [6],16 µg/mL
same,MIC,[3]; [7],12 µg/mL
same,EFSA Limit 2012,Lactobacillus paracasei,64 µg/mL
same,MIC,[4]; [8],64 µg/mL
same,MIC,Commercial Lactobacillus; [9],12 µg/mL
CN(C)[C@@H]1C(O)=C(C(N)=O)C(=O)[C@@]2(O)C(O)=C3C(=O)c4c(O)cccc4[C@@](C)(O)[C@H]3C[C@@H]12 [Tetracycline],MIC,[1]; [5],0.38 µg/mL
same,MIC,[2]; [6],12 µg/mL
same,MIC,[3]; [7],0.19 µg/mL
same,MIC,[4]; [8],8 µg/mL
same,MIC,Commercial Lactobacillus; [9],0.5 µg/mL
CN[C@H](CC(C)C)C(=O)N[C@H]1C(=O)N[C@@H](CC(N)=O)C(=O)N[C@H]2C(=O)N[C@H]3C(=O)N[C@H](C(=O)N[C@H](C(=O)O)c4cc(O)cc(O)c4-c4cc3ccc4O)[C@H](O)c3ccc(c(Cl)c3)Oc3cc2cc(c3O[C@@H]2O[C@H](CO)[C@@H](O)[C@H](O)[C@H]2O[C@H]2C[C@](C)(N)[C@H](O)[C@H](C)O2)Oc2ccc(cc2Cl)[C@H]1O [Vancomycin],MIC,[1]; [15],> 256 µg/mL
same,MIC,"[2]; Lactiplantibacillus plantarum, DSM32252",> 256 µg/mL
same,MIC,[3]; [16],> 256 µg/mL
same,MIC,[4]; Bifidobacterium,0.38 µg/mL
same,MIC,Commercial Lactobacillus; Lactobacillus,> 256 µg/mL
Gentamicin,MIC,[1]; [10],4 µg/mL
same,MIC,[2]; [11],4 µg/mL
same,MIC,[3]; [12],2 µg/mL
same,EFSA Limit 2012,Lactobacillus plantarum,16 µg/mL
same,EFSA Limit 2012,Lactobacillus paracasei,32 µg/mL
same,MIC,[4]; [13],48 µg/mL
same,MIC,Commercial Lactobacillus; [14],6 µg/mL
Quinupristin/Dalfopristin,MIC,[1]; [10],0.25 µg/mL
same,MIC,[2]; [11],0.38 µg/mL
same,MIC,[3]; [12],0.094 µg/mL
same,EFSA Limit 2012,Lactobacillus plantarum,4 µg/mL
same,EFSA Limit 2012,Lactobacillus paracasei,4 µg/mL
same,MIC,[4]; [13],0.25 µg/mL
same,MIC,Commercial Lactobacillus; [14],1 µg/mL
